Patent US20230220346A1, “BIOLOGICALLY SYNTHESIZED HYDROXYAPATITE FOR BONE REGENERATION AND TISSUE ENGINEERING” (BIOVENTURES, LLC, priority 2019, published 2023)

Key:
[1] = tested on: MG-63 and Saos-2 cell lines; assay: Alizarin Red S biomineralization assay: phosphate source comparison, titration, ascorbic acid (FIG. 1A, 1C, 1E-G); type: cell-based, human; conditions: for biomineralization with the substance as organic phosphate source: substituted for βGP, 2 mM, with ALP, FIG. 1B,C; for dose dependence of biomineralization (titration assays): FIG. 1E-G
Procedure: (§1) Biomineralization assays and Alizarin Red S staining: All human and mouse cell lines and human peripheral blood mononuclear cells (MNCs) were maintained in MEMα/10% FBS with penicillin/streptomycin and glutamine in a 37° C. humidified incubator with 5% CO2. […] The medium was replaced after 4 days. Alizarin Red S staining was performed at room temperature by removing the culture medium, washing the cells twice with 1×PBS (pH 7.4), fixing the cells in 10% neutral buffered formalin (Richard-Allan Scientific, Kalamazoo, Mich., USA) for 30 min, rinsing twice with Milli-Q water, staining with Alizarin Red S for 30 min, and destaining twice in Milli-Q water. A ZEISS inverted fluorescence/brightfield microscope equipped with an Infinity 3 digital camera and software system was used for imaging.

Saos-2 cell line = assay: Alizarin Red S (ARS) biomineralization assay in Saos-2; type: cell-based, human; conditions: for biomineralization (Alizarin Red S staining): MEMα/10% FBS plus the supplement only, no ALP added, 7 days
Procedure: as §1

MG-63 cell line = assay: Alizarin Red S (ARS) biomineralization assay in MG-63; type: cell-based, human; conditions: MEMα/10% FBS plus the supplement only, no ALP added, 7 days
Procedure: as §1

[2] = tested on: human blood mononuclear cells (MNCs); assay: Alizarin Red S biomineralization assay in human blood mononuclear cells; type: cell-based; conditions: MEMα/10% FBS with αGP alone or CIP alone (the other missing), 7 days
Procedure: as §1
Coating cell culture plate with Collagen Type I, rat tail for mineralization assays: To coat a 48-well plate with Collagen Type I at 5 μg/cm^2, the stock solution was diluted to 25 μg/mL in 17.5 mM of acetic acid and aliquoted […] into each well. After incubating at room temperature for one hour, the Collagen Type I solution was removed. Each well was rinsed with 1×PBS (pH 7.4) and air-dried at room temperature. Human blood MNCs were suspended in the conditioned media and distributed into each well (1×10^5 cell/well) prior to a 7-day incubation. […]

In the case of `NCCC(O)(P(=O)(O)O)P(=O)(O)O` [pamidronate], the “biomineralization with the substance as organic phosphate source” value [1] was “did not occur”.

`O=C1O[C@H]([C@@H](O)CO)C(O)=C1O` [Vit. C, Ascorbic acid] was tested, and the “biomineralization (Alizarin Red S staining)” value (Saos-2 cell line) was “No mineralization”, the “biomineralization (Alizarin Red S staining)” value (MG-63 cell line) was “No mineralization” and the “need of ascorbic acid for biomineralization” value ([1]; MEMα with or without ascorbic acid, FIG. 1A and FIG. 8) was “unnecessary or even deleterious”.

`O=P([O-])([O-])OC(CO)CO.[Na+].[Na+]` [βGP, disodium β-glycerophosphate] was tested, and the “biomineralization (Alizarin Red S staining)” value (Saos-2 cell line) was “could mineralize” and the “biomineralization (Alizarin Red S staining)” value (MG-63 cell line) was “could not”.

In the case of `O=P(O)(O)OCC(O)CO` (stereo not drawn) [NSC 9231, glycerophosphoric acid], the “biomineralization with the substance as organic phosphate source” value [1] was “did not occur”.

`O.O=P([O-])([O-])OCC(O)CO.[Na+].[Na+]` (stereo not drawn) [αGP, Disodium α-glycerophosphate hydrate] was tested, and the “incubation time until biomineralization occurred at cytoplasmic membrane and cytosol” value (Saos-2 cell line; MEMα/10% FBS with 2 mM αGP) was no more than 24 h, the “biomineralization (Alizarin Red S staining)” value [2] was “did not occur” and the “dose dependence of biomineralization (titration assays)” value [1] was “depended on the doses”. For the same compound, the “relative efficiency of phosphoester salts in eliciting biomineralization” value ([1]; compared to βGP and PEP, FIG. 1C) was “most efficient”.

`[Ca+2]` [Ca^2+, calcium ions] was tested, and the “dose dependence of biomineralization (titration assays)” value [1] was “depended on the doses”.
